Laboratory results: patent US4684665A, “Sebosuppressive benzoic acid ester derivatives and cosmetic preparations containing them” (Henkel Kommanditgesellschaft auf Aktien, priority 1985, dated 1987)

System: accumulation of sebum
Assay: Anti-seborrheic activity on the shaved back of rats (browning, second evaluation method), % sebum reduction
Assay type: in vivo
Settings: topical, once daily on 9 of 14 days, male Wistar rats, treated side vs untreated control group; for % Sebum reduction at the indicated concentration of active substance: 0.02%: 0.02 wt. % in alcohol; for % Sebum reduction at the indicated concentration of active substance: 0.05%: 0.05 wt. % in alcohol; for % Sebum reduction at the indicated concentration of active substance: 0.1%: 0.1 wt. % in alcohol
Excerpt: Male Wistar rats having a body weight ranging from 220 to 230 g at the beginning of the tests were used as the test animals. The accumulation of sebum in the test animals was examined by visually observing the degree of browning on the shaved back of the rats. Browning is caused by the accumulation of the brown skin surface lipid secreted by the rats. This test is based on the observation that young female rats, as well as male rats washed with a surfactant solution or with a lipid solvent or male rats systematically treated with estrogens show only a normal light, pink-colored skin after shaving, while at the same time, only comparatively very small quantities of lipids can be extracted from the shaved hairs.
In order to assess the anti-seborrheic effectiveness of the alkoxy and alkylbenzyloxy benzoic acid esters of the present invention, alcoholic solutions of test substances (B), (E), (F), (H) and (I) were each brushed onto one side of the back of 6 rats. The benzoic acid ester derivatives tested were applied in concentrations ranging from 0.02 to 0.1 wt. % in the alcohol.
The test period consisted of 14 days. The test substances were applied, once daily on 9 of the 14 days. A second group of 6 rats which were not treated was used as an additional control. At the end of the test period, the backs and sides of the animals were shaved and visually inspected. The examination was done independently by an evaluation panel composed of 6 people using double blind techniques.
A second criterion of evaluation is the intensity of the brown coloration in the shaved area. The following scale is used for this analysis:
According to this second method of evaluation, differences in the total points between the untreated control animals and the treated and untreated sides (ΔP) of the test animals respectively are calculated. Significant differences between the total point values assigned to the control animals and the values assigned to the treated side of the test animals again indicate the antiseborrheic effectiveness of a substance.
The results are presented in terms of sebum reduction percentage. The sebum reduction percentage is calculated from the point differences by determining the quotient of the difference in total points between the control group and the treated side of the test animals (ΔP) and the total number of points for the control group (Pk) and then expressing the value obtained in percent. [formula]

Row | Molecule | % Sebum reduction at the indicated concentration of active substance: 0.02% | % Sebum reduction at the indicated concentration of active substance: 0.05% | % Sebum reduction at the indicated concentration of active substance: 0.1%
1 | COC(=O)c1ccc(OCc2ccc(C(C)(C)C)cc2)cc1 [Compound E, 4-(4-tert-butylbenzyloxy)-benzoic acid methylester] | 10% | 77% | –
2 | 4-isotridecyloxy-benzoic acid methylester | 83% | 83% | –
3 | CCCCCCCCCCCCOCCOc1ccc(C(=O)OCCCO)cc1 [H, 4-(2-dodecyloxy-ethoxy)-benzoic acid-3-hydroxypropyl ester] | – | 71% | –
4 | CCCCCCCCCCCCOCCOc1ccc(C(=O)OC)cc1 [F, 4-(2-dodecyloxyethoxy)-benzoic acid methylester] | – | 63% | –
5 | CCCCCCCCCCCCOc1ccc(C(=O)OCCCO)cc1 [4-dodecyloxy benzoic acid-3-hydroxypropyl ester, reference compound] | – | 18% | 33%
6 | CCCCCCCCCCCCOc1ccc(C(=O)OC)cc1 [4-dodecyloxy benzoic acid methyl ester, reference compound] | – | 0% | 18%
7 | COC(=O)c1ccc(OCCC(C)CC(C)(C)C)cc1 (stereo not drawn) [Compound B, 4-(3,5,5-trimethylhexyloxy)-benzoic acid methylester] | – | 36% | 76%
